The values that follow come from ChEMBL document CHEMBL4706648, “Antitubercular 2-Pyrazolylpyrimidinones: Structure-Activity Relationship and Mode-of-Action Studies” (J Med Chem, 2021).

≈ marks a conversion by molar mass, not a printed value. Calls of active or inactive are those of the source. The rule behind the calls is not given here. Bounds are passed on as bounds.

What is called clearance is the volume of plasma or blood freed of the substance per unit of time. Higher therefore signals a high capacity for elimination. Broadly, the Tmax is the time from dosing to the highest level. One may read the bioavailability as the share of a dose that reaches the circulation, judged against a reference dose that is usually intravenous. Low readings indicate poor availability, high ones good availability. What is called Cmax is the highest concentration seen after dosing. In general, IC50 refers to the concentration needed to halve the response being measured. The Vd is the apparent volume that relates the amount in the body to the concentration in plasma or blood. What is called solubility is the concentration that dissolves in the medium under given conditions. A high value points to much dissolved substance. For orientation: MIC means the least concentration at which growth counts as inhibited. For orientation: AUC(0-inf) means total exposure, with the tail of the curve extrapolated. Broadly, the AUC is the area under the concentration-time curve, a measure of exposure. One may read the logD as lipophilicity at a set pH, counting ionised and neutral species. Low readings indicate a more hydrophilic compound, high ones a more lipophilic compound.

Data set [1] can be described thus: Total blood clearance in C57/BL6 mouse blood at 2 mg/kg, iv administered as bolus dose measured upto 24 hrs by LC-MS/MS analysis. The data set is classed as ADME, organism-based.
Data set [2] in a line: Tmax in C57/BL6 mouse blood at 20 mg/kg, po measured upto 24 hrs by LC-MS/MS analysis. The format is ADME, organism-based.
Data set [3] in a line: Drug metabolism in C57/BL6 mouse blood assessed as glucuronide metabolite formation by HPLC analysis. The data set is classed as ADME, tissue-based.
Data set [4] is described as follows: Metabolic stability in human liver microsomes assessed as parent compound remaining after 30 mins. The data set is classed as ADME, Microsome. Particulars: 0.5 h. (Liver microsomes are vesicles of endoplasmic reticulum, rich in cytochrome P450 enzymes.)
Data set [5] is described as follows: Oral bioavailability in C57/BL6 mouse blood at 20 mg/kg measured upto 24 hrs by LC-MS/MS analysis. The data set is classed as ADME, organism-based.
A short description of data set [6]: Cmax in C57/BL6 mouse blood at 20 mg/kg, po measured upto 24 hrs by LC-MS/MS analysis. The data set is classed as ADME, organism-based. Set-up: route oral, dose 20 mg/kg, time <=24.
The next data set concerns CHO. Briefly: Cytotoxicity against CHO cells assessed as reduction in cell viability by MTT assay. The format is cell-based. Particulars: Cricetulus griseus. A general note: Tetrazolium dyes change colour on reduction, which living cells bring about.
Data set [7] can be described thus: Volume of distribution during elimination phase in C57/BL6 mouse blood at 2 mg/kg, iv administered as bolus dose measured upto 24 hrs by LC-MS/MS analysis. The format is ADME, organism-based.
Data set [8] can be described thus: Aqueous solubility of compound at pH 7.4. The format is physicochemical. Particulars: buffer.
Data set [9] concerns Mycobacterium tuberculosis. Briefly: Antimycobacterial activity against wild-type Mycobacterium tuberculosis H37Rv assessed as inhibition of bacterial growth grown under middlebrook 7H9 medium incubated for 7 days by alamar blue broth microdilution method. The data set is classed as functional. Particulars: 168 h, time 7 day. Background: The colour change of resazurin is a common sign of viable cells or microbes.

Data set [10] in a line: Kinetic solubility of compound at 200 uM at pH 7.4 measured after 20 hrs by HPLC-DAD analysis. The format is physicochemical. Particulars: buffer, pH 7.4, 20 h.
Data set [11] can be described thus: Apparent half life in C57/BL6 mouse blood at 20 mg/kg, po measured upto 24 hrs by LC-MS/MS analysis. The data set is classed as ADME, organism-based.
Data set [12] is described as follows: Intrinsic clearance in C57/BL6 mouse blood at 2 mg/kg, iv administered as bolus dose measured upto 24 hrs by LC-MS/MS analysis. The data set is classed as ADME, organism-based. Particulars: in vivo.
Data set [13] can be described thus: Apparent half life in C57/BL6 mouse blood at 2 mg/kg, iv administered as bolus dose measured upto 24 hrs by LC-MS/MS analysis. The data set is classed as ADME, organism-based.
Data set [14] can be described thus: AUC (0 to infinity) in C57/BL6 mouse blood at 2 mg/kg, iv administered as bolus dose measured upto 24 hrs by LC-MS/MS analysis. The format is ADME, organism-based. Set-up: route intravenous, dose 2 mg/kg, time <=24.
The nature of data set [15]: Cmax in C57/BL6 mouse blood at 2 mg/kg, iv administered as bolus dose measured upto 24 hrs by LC-MS/MS analysis. The format is ADME, organism-based. On the set-up: route intravenous, dose 2 mg/kg, time <=24.
The nature of data set [16]: Metabolic stability in mouse liver microsomes assessed as parent compound remaining after 30 mins. Particulars: 0.5 h. The format is ADME, Microsome.
Data set [17] can be described thus: Protein binding in human plasma assessed as unbound fraction at 5 uM incubated for 1 hr at 37 degreeC and measured after 4 hrs by ultracentrifugation based LC-MS/MS analysis. The format is ADME, cell-free. Particulars: 5 h.
In data set [18] the test system is Mycobacterium tuberculosis. As to the kind of experiment: Bactericidal activity against Mycobacterium tuberculosis H37Rv assessed as reduction in CFU grown under middlebrook 7H9/OADC-Glycerol-Tween80 medium at 1 to 2 times MIC incubated for 7 days. The format is functional. Particulars: time 7 day.
Data set [19] relates to Mycobacterium tuberculosis. Briefly: Antimycobacterial activity against mmpL3 gene silenced Mycobacterium tuberculosis H37Rv assessed as inhibition of bacterial growth grown under middlebrook 7H9 medium incubated for 7 days by alamar blue broth microdilution method. The data set is classed as functional, organism-based. Particulars: time 7.0 day.
The test system of data set [20] is Mycobacterium tuberculosis. The format is functional. Particulars: H37Rv, 168 h, time 7 day.
A short description of data set [21]: AUC (0 to infinity) in C57/BL6 mouse blood at 20 mg/kg, po measured upto 24 hrs by LC-MS/MS analysis. The format is ADME, organism-based. On the set-up: route oral, dose 20 mg/kg, time <=24.
The nature of data set [22]: Metabolic stability in rat liver microsomes assessed as parent compound remaining after 30 mins. The format is ADME, Microsome. Particulars: 0.5 h.
Data set [23] has as its target Voltage-gated inwardly rectifying potassium channel KCNH2 (Homo sapiens, UniProt Q12809). As to the kind of experiment: Inhibition of human ERG.
The subject of data set [24] is Mycobacterium tuberculosis. The data set is classed as functional. Particulars: H37Rv, 168 h, time 7 day. This is another data set of the same source.
Data set [25] is described as follows: Solubility of compound at 3 uM. The data set is classed as physicochemical.
Data set [26] concerns Mycobacterium tuberculosis. The data set is classed as functional. Particulars: H37Rv, 168 h, time 7 day. The source holds these as a separate data set.
Data set [27] in a line: Lipophilicity, log D of the compound in n-octanol and phosphate buffer at pH 7.4 measured after 3 hrs by HPLC-DAD analysis. The data set is classed as physicochemical.
The test system of data set [28] is Mycobacterium tuberculosis. The format is functional. Particulars: H37Rv, 168 h, time 7 day. The source holds these as a separate data set.
Data set [29] has as its system Mycobacterium tuberculosis. The data set is classed as functional. Particulars: H37Rv, 168 h, time 7 day. This is another data set of the same source.
Data set [30] relates to HepG2. As to the kind of experiment: Antiproliferative activity against human HepG2 cells assessed as reduction in cell viability grown under glucose medium by MTT assay. The data set is classed as functional, cell-based.
Data set [31] in a line: Metabolic stability in human liver microsomes assessed as parent compound remaining at 1 uM in presence of NADPH by LC-MS/MS analysis. The data set is classed as ADME, Microsome.
The subject of data set [32] is Mycobacterium tuberculosis. The format is functional. Particulars: H37Rv, 168 h, time 7 day. This is another data set of the same source.
Data set [33] in a line: Metabolic stability in rat liver microsomes assessed as parent compound remaining at 1 uM in presence of NADPH by LC-MS/MS analysis. The format is ADME, Microsome.
Data set [34] can be described thus: Metabolic stability in mouse liver microsomes assessed as parent compound remaining at 1 uM in presence of NADPH by LC-MS/MS analysis. The format is ADME, Microsome.
In data set [35] the test system is HepG2. Briefly: Antiproliferative activity against human HepG2 cells assessed as reduction in cell viability grown under galactose medium by MTT assay. The data set is classed as functional, cell-based.
[36] abbreviates: C57/BL6, mouse, blood, read-out: t1/2(app) (converted).

Sequence of Voltage-gated inwardly rectifying potassium channel KCNH2 (Q12809 whole entry): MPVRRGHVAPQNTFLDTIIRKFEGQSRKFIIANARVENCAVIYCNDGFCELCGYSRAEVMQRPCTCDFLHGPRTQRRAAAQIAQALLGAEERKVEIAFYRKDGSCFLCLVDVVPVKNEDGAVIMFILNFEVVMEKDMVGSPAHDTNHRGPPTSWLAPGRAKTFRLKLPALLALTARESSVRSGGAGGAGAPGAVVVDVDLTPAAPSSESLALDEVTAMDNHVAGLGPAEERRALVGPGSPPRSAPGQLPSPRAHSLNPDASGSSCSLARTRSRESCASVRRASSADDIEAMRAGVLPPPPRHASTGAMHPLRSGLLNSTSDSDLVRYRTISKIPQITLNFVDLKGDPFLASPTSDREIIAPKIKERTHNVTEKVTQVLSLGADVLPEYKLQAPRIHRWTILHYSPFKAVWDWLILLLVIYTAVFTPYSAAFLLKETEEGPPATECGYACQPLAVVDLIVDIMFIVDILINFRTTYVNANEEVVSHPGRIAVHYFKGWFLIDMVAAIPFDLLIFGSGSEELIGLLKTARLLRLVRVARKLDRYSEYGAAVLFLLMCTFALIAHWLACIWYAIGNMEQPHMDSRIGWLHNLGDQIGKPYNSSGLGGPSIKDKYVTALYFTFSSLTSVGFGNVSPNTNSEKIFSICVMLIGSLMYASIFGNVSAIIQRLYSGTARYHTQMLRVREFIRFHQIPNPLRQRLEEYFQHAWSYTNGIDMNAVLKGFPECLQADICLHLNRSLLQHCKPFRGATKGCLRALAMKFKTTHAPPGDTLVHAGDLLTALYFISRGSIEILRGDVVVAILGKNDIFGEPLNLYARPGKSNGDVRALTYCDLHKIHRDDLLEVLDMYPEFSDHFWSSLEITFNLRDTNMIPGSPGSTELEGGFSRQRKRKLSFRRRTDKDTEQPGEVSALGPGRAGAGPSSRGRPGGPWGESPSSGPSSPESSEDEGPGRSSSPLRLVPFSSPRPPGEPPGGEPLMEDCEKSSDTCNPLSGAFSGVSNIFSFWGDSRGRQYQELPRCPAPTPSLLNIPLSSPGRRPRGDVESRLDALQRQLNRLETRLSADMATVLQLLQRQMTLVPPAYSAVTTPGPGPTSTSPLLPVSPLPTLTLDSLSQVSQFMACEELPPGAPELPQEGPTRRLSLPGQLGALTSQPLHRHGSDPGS

`CCNc1cc(C)nn1-c1nc(-c2cccnc2)cc(=O)[nH]1` yielded a clearance in data set [1] of 0.4 mL/min/kg. For the same compound, the Tmax in data set [2] (C57/BL6, mouse, blood, read-out: Tmax) turned out to be 1 h. In addition, in data set [3], the Drug metabolism result is reported as “Metabolite_Detected”. Moreover, the results for the Stabilty in [4], in [16] and in data set [22] were 80%, 94% and 95%, respectively. In data set [5] (C57/BL6, mouse, blood), the bioavailability is 44%. Further, the Cmax was 104 µM in data set [6] (C57/BL6, mouse, blood) and 33.1 µM in data set [15] (C57/BL6, mouse, blood). Besides, the IC50 in the data set on CHO was above 50 µM. Further, the Vd in [7] (C57/BL6, mouse, blood, read-out: Vd) was 0.1 L/kg. This compound displayed a solubility in data set [8] of 90 µM (≈ 26.7 µg/mL). Further, the MIC in [9] came to 5.8 µM (≈ 1.72 µg/mL); in data set [20], 6.25 µM (≈ 1.85 µg/mL). In data set [10], this compound displayed a Kinetic_solubility of 90 µM. Moreover, the half-life is 6.1 h in [11] (setting [36]) and 4 h in data set [13] (setting [36]). The CL in [12] was found to be 34 mL/min/kg. Besides, the AUC(0-inf) is 256 µM·h in [14] (C57/BL6, mouse, blood) and 1090 µM·h in data set [21]. Moreover, the Fu in data set [17] is recorded as 0.009. For the same compound, the Activity in [18] is reported as 2 log10CFU. Besides, the outcome in data set [19] was Active.
With `Cc1cc(C)n(-c2nc(C(F)(F)F)cc(=O)[nH]2)n1`, the time to peak (Tmax) in data set [2] (mouse, in vivo, 20 mg/kg, 24 h) amounted to 0.5 h. Also, the Stabilty in data set [4] is listed as above 99%; in data set [16], above 99%; in [22], 92%. Also, the F in data set [5] (mouse, in vivo, 20 mg/kg, 24 h) is given as 41%. Besides, the maximum concentration (Cmax) in data set [6] (mouse, in vivo, 24 h) came to 65.6 µM; in data set [15] (mouse, in vivo, 24 h), 29.1 µM. Further, the IC50 in data set [23] was above 30 µM; in the data set with CHO, 150 µM. Further, in data set [7] (mouse, in vivo, 2 mg/kg, 24 h), the Vd is 0.7 L/kg. In data set [8], this compound returned a solubility of 200 µM (≈ 51.6 µg/mL). The minimal inhibitory concentration (MIC) turned out to be 15 µM (≈ 3.87 µg/mL) in data set [9] and 12 µM (≈ 3.1 µg/mL) in data set [20]. The compound further gave a Kinetic_solubility in data set [10] of 200 µM. The “t1/2(app)” value in [11] (mouse, in vivo, 20 mg/kg, 24 h) stood at 4 h; in data set [13] (mouse, in vivo, 2 mg/kg, 24 h) it was 3.1 h. The CL in data set [12] was 476 mL/min/kg. Further, the AUC in [14] (mouse, in vivo, 24 h) was found to be 2928 µM·min. For the same compound, the Fu in data set [17] came out at 0.006. For the same compound, in data set [18], the Activity turned out to be 2 log10CFU. For the same compound, the outcome in [19] was Active.
Turning to `Cc1cc(C)n(-c2nc(O)cc(-c3ccccc3)n2)n1`, the minimal inhibitory concentration (MIC) amounted to 1.5 µM (≈ 0.399 µg/mL) in data set [24]; 0.6 µM (≈ 0.16 µg/mL) in [26]; 0.02 µM (≈ 0.00533 µg/mL) in [28]; 0.4 µM (≈ 0.107 µg/mL) in [29]; 1.7 µM (≈ 0.453 µg/mL) in data set [9]; 0.3 µM (≈ 0.0799 µg/mL) in data set [32]. This compound also gave a minimal inhibitory concentration (MIC) in data set [20] of 1.5 µM (≈ 0.399 µg/mL). Moreover, the solubility at 3 µM in [25] came out at 180 µM (≈ 47.9 µg/mL). This compound gave a pH-dependent lipophilicity (logD) at 3 h in data set [27] of 2.5. Also, the IC50 in data set [23] is above 30 µM; in the data set with CHO, 8 µM; with HepG2 [30], 4 µM; in the data set on HepG2 [35] it was 4 µM. For the same compound, the solubility in data set [8] came to 10 µM (≈ 2.66 µg/mL). For the same compound, the Stabilty is reported as 98% in data set [31], 69% in [33] and 22% in data set [34]. The outcome in [19] was Active.
